The molecules below were run against ALK kinase (Homo sapiens, UniProt Q9UM73) (assay: Test to measure ALK kinase inhibition (GST-PLCγ1 substrate, anti-phosphotyrosine ELISA, luminescence)). Settings: ALK kinase 180 ng/ml, 250 μM ATP, 30 minutes at 30° C.
Format: biochemical
Method: Test to Measure ALK Kinase Inhibition
A ViewPlate (Packard) is incubated with the GST-PLCγ1 substrate (purified recombinant form) at 0.1 mg/ml in phosphate buffer (PBS pH 7.4)(100 μl/well) for one hour under shaking. The plate is then saturated with a blocking solution containing 5% bovine serum albumin (BSA) (SIGMA) in PBS buffer pH 7.4.
After adding the inhibitor at the desired final concentration (usual range of 30 μM to 10 nM), the reaction is conducted by adding the ALK kinase at 180 ng/ml in 13 mM Tris reaction buffer pH 7.5 (SIGMA); 6.5 mM MgCl2 (MERCK); 0.65 mM DiThioThreitol (DTT) (ACROS); 39 mM sodium β-glycerophosphate (TCI); 0.65 mM sodium orthovanadate (SIGMA) and 250 μM ATP (SIGMA). Incubation is carried out for 30 minutes at 30° C. under shaking.
After three washings under shaking in 0.1% PBS/Tween-20 buffer (SIGMA), an anti-phosphotyrosine antibody coupled with HRP (UBI) diluted to 1/1000th in PBS/BSA buffer 5 mg/ml, is incubated for one hour under shaking. After three further washings in 0.1% PBS/Tween-20, the wells are incubated two minutes with 100 μl of SuperSignal ELISA mixture (PIERCE).
The signal is read in luminescent mode using a luminometer (MOLECULAR DEVICES SpectraMax M5e).

Chain of ALK kinase (Q9UM73 19-1620): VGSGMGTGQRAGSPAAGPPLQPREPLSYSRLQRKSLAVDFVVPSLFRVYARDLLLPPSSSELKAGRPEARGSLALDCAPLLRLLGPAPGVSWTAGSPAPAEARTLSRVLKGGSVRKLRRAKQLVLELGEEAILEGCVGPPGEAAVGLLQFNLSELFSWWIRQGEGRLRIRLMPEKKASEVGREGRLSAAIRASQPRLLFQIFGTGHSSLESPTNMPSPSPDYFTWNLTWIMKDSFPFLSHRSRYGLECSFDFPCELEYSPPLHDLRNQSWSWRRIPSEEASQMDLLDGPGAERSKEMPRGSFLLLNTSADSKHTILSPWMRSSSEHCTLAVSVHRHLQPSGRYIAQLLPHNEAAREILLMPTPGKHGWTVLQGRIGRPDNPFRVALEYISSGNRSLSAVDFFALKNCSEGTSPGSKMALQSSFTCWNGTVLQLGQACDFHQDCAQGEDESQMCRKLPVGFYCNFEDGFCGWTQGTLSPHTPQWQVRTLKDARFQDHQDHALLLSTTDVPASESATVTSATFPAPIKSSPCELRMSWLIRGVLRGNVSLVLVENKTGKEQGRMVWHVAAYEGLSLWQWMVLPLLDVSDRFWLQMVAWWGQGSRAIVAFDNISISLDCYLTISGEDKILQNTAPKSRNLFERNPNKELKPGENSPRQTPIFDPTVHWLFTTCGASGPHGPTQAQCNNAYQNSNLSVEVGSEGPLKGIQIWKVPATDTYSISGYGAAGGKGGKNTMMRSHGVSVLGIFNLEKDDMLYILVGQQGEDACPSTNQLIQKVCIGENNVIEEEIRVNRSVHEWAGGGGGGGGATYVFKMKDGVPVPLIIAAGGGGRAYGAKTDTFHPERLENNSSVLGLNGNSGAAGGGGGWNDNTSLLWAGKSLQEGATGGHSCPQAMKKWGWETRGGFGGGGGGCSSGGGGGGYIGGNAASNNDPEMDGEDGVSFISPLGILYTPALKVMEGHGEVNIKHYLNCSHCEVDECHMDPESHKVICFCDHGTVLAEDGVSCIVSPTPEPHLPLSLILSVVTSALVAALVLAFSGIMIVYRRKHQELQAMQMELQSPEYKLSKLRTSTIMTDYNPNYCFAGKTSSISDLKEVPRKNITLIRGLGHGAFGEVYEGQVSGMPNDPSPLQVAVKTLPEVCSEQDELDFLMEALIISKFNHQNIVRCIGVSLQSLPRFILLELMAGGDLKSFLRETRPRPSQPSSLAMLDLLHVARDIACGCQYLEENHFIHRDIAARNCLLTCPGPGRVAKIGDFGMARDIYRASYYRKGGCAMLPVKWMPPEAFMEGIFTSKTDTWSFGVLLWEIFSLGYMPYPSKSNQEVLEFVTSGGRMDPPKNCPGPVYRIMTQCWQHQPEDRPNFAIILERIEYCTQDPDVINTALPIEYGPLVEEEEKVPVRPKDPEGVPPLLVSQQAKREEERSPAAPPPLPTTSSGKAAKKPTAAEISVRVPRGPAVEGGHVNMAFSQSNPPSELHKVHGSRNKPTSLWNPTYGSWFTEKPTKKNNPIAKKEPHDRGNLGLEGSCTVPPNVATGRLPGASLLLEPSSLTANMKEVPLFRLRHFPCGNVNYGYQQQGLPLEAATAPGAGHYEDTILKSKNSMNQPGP

SMILES | IC50 [µM]
Cc1n[nH]c2cc(-c3ccc(O)cc3F)c(C#N)c(-c3ccco3)c12 [Compound 81] | < 0.1
COc1ccc(-c2nc3[nH]ncc3c(-c3ccc(C#CCN)o3)c2C#N)cc1 [Compound 288] | 1 to 10
N#Cc1c(-c2ccc(O)cc2)nc2[nH]ncc2c1-c1ccsc1 [Compound 50] | 0.1 to 1
Cc1c(C#N)c(-c2ccc(O)cc2)nc2[nH]nc(-c3cccc(N4CCNCC4)c3)c12 [Compound 106] | 0.1 to 1
N#Cc1c(-c2ccc(O)cc2)nc2[nH]ncc2c1-c1ccco1 [Compound 44] | < 0.1
N#Cc1c(-c2ccccc2)nc2[nH]nc(-c3cccs3)c2c1-c1ccc(N2CCNCC2)cc1 [Compound 219] | 1 to 10
N#Cc1c(-c2c(F)ccc(F)c2F)nc2[nH]nc(-c3ccco3)c2c1-c1ccc(N2CCNCC2)cc1 [Compound 242] | 0.1 to 1
N#Cc1c(-c2cscn2)nc2[nH]nc(-c3ccc(N4CCOCC4)cc3)c2c1-c1ccc(N2CCNCC2)cc1 [Compound 281] | 1 to 10
N#Cc1c(-c2ccc(O)cc2)nc2[nH]ncc2c1-c1ccc(OCCN2CCOCC2)cc1 [Compound 73] | 0.1 to 1
Cc1n[nH]c2nc(-c3ccc(O)cc3F)c(C#N)c(-c3ccc(N4CCC(N5CCN(C)CC5)CC4)o3)c12 [Compound 169] | < 0.1
CCOC(=O)c1c(-c2c(F)ccc(F)c2F)nc2[nH]nc(C)c2c1-c1ccc(N2CCNCC2)cc1 [Compound 252] | 0.1 to 1
CC(C)(C)C(=O)Oc1ccc(-c2nc3[nH]nc(-c4cccs4)c3c(-c3ccc(N4CCNCC4)cc3)c2C#N)c(F)c1 [Compound 296] | 0.1 to 1
CN1CCN(Cc2ccc(-c3c(C#N)c(-c4ccc(O)cc4F)nc4[nH]ncc34)o2)CC1 [Compound 85] | 0.1 to 1
CN(C)CC#Cc1ccc(-c2c(C#N)c(-c3ccc(O)cc3)nc3[nH]ncc23)o1 [Compound 274] | 1 to 10
N#Cc1c(-c2ccc(O)cc2)nc2[nH]ncc2c1-c1ccoc1 [Compound 45] | 0.1 to 1
N#Cc1c(-c2ccc(O)cc2F)nc2[nH]ncc2c1-c1ccc(-c2ccc(S(N)(=O)=O)cc2)o1 [Compound 287] | < 0.1

Second part, the molecule after the results:

IC50 [µM] | SMILES
0.1 to 1 | Cc1n[nH]c2nc(-c3ccc(O)cc3F)c(C#N)c(-c3ccc(N4CCNCC4)c(N)c3)c12 [Compound 226]
< 0.1 | Cc1c(C#N)c(-c2ccc(O)cc2F)nc2[nH]nc(-c3ccc(N4CCNCC4)cc3)c12 [Compound 118]
< 0.1 | N#Cc1c(-c2ccc(O)cc2F)nc2[nH]nc(N)c2c1-c1ccc(N2CCNCC2)c(F)c1 [Compound 193]
< 0.1 | Cc1n[nH]c2nc(-c3ccc(O)cc3F)c(C#N)c(-c3ccc(N4CCNCC4)cc3)c12 [Compound 88]
1 to 10 | N#Cc1c(-c2ccc(O)cc2)nc2[nH]nc(N)c2c1-c1ccc(N2CCNCC2)cc1 [Compound 303]
1 to 10 | Cc1n[nH]c2nc(-c3ccc(N)cc3F)c(C#N)c(-c3ccc(N4CCNCC4)cc3)c12 [Compound 160]
1 to 10 | Cc1n[nH]c2nc(-c3cc(Cl)ccc3F)c(C#N)c(-c3ccc(N4CCNCC4)cc3)c12 [Compound 217]
< 0.1 | N#Cc1c(-c2ccc(O)cc2F)nc2[nH]nc(N)c2c1-c1ccc(N2CCC(N)CC2)o1 [Compound 190]
0.1 to 1 | Cc1n[nH]c2nc(-c3ccc(O)cc3F)c(S(C)(=O)=O)c(-c3ccc(N4CCNCC4)cc3)c12 [Compound 238]
< 0.1 | N#Cc1c(-c2ccc(O)cc2F)nc2[nH]ncc2c1-c1ccc(N2CCNCC2)o1 [Compound 113]
0.1 to 1 | Cc1n[nH]c2nc(-c3cc4cc[nH]c4cc3F)c(C#N)c(-c3ccc(N4CCNCC4)cc3)c12 [Compound 234]

The molecules below were run on karpas 299 cells (assay: Measurement of inhibition of cell proliferation (Karpas), ATPlite). Settings: 72 hours.
Format: cell-based
Method: Measurement of Inhibition of Cell Proliferation (Karpas):
The antiproliferative activities of the compounds were measured using the ATPlite technique (Perkin Elmer).
The non-adhering cells (karpas 299) are seeded in 96-well plates (300 000 cells/ml) on Day 1 at a concentration compatible with logarithmic growth for 72 hours required for evaluation of the compounds. All the cells are treated on Day 1, then placed in an incubator at 37° C. under 5% CO2 atmosphere. Cell viability is evaluated on Day 4 by assay of released ATP, characteristic of viable cells. The IC50 values are determined by non-linear regression on the basis of a sigmoid model of dose/response relationship, Hill's slope coefficient being left variable, performed using GraphPad software sequence with the supplied algorithm.

IC50 [µM] | SMILES
0.1 to 1 | Cc1n[nH]c2nc(-c3ccc(O)cc3F)c(C#N)c(-c3ccc(N4CCNCC4)cc3)c12 [Compound 88]
0.1 to 1 | Cc1n[nH]c2nc(-c3ccc(O)cc3F)c(C#N)c(-c3ccc(N4CCC(N5CCN(C)CC5)CC4)o3)c12 [Compound 169]

Same assay, conditions: Homo sapiens, KARPAS-299, 72 h

SMILES | IC50 [µM]
Cc1n[nH]c2cc(-c3ccc(O)cc3F)c(C#N)c(-c3ccco3)c12 [Compound 81] | 0.1 to 1
COc1ccc(-c2nc3[nH]ncc3c(-c3ccc(C#CCN)o3)c2C#N)cc1 [Compound 288] | > 10
N#Cc1c(-c2ccc(O)cc2)nc2[nH]ncc2c1-c1ccsc1 [Compound 50] | 1 to 10
Cc1c(C#N)c(-c2ccc(O)cc2)nc2[nH]nc(-c3cccc(N4CCNCC4)c3)c12 [Compound 106] | 1 to 10
N#Cc1c(-c2ccc(O)cc2)nc2[nH]ncc2c1-c1ccco1 [Compound 44] | 0.1 to 1
N#Cc1c(-c2ccccc2)nc2[nH]nc(-c3cccs3)c2c1-c1ccc(N2CCNCC2)cc1 [Compound 219] | 1 to 10
N#Cc1c(-c2c(F)ccc(F)c2F)nc2[nH]nc(-c3ccco3)c2c1-c1ccc(N2CCNCC2)cc1 [Compound 242] | 1 to 10
N#Cc1c(-c2cscn2)nc2[nH]nc(-c3ccc(N4CCOCC4)cc3)c2c1-c1ccc(N2CCNCC2)cc1 [Compound 281] | 1 to 10
CCOC(=O)c1c(-c2c(F)ccc(F)c2F)nc2[nH]nc(C)c2c1-c1ccc(N2CCNCC2)cc1 [Compound 252] | 1 to 10
CC(C)(C)C(=O)Oc1ccc(-c2nc3[nH]nc(-c4cccs4)c3c(-c3ccc(N4CCNCC4)cc3)c2C#N)c(F)c1 [Compound 296] | 0.1 to 1
CN1CCN(Cc2ccc(-c3c(C#N)c(-c4ccc(O)cc4F)nc4[nH]ncc34)o2)CC1 [Compound 85] | 1 to 10
CN(C)CC#Cc1ccc(-c2c(C#N)c(-c3ccc(O)cc3)nc3[nH]ncc23)o1 [Compound 274] | 1 to 10
N#Cc1c(-c2ccc(O)cc2)nc2[nH]ncc2c1-c1ccoc1 [Compound 45] | 1 to 10
N#Cc1c(-c2ccc(O)cc2F)nc2[nH]ncc2c1-c1ccc(-c2ccc(S(N)(=O)=O)cc2)o1 [Compound 287] | 1 to 10

Further lines, results first:

IC50 [µM] | SMILES
1 to 10 | Cc1n[nH]c2nc(-c3ccc(O)cc3F)c(C#N)c(-c3ccc(N4CCNCC4)c(N)c3)c12 [Compound 226]
1 to 10 | Cc1c(C#N)c(-c2ccc(O)cc2F)nc2[nH]nc(-c3ccc(N4CCNCC4)cc3)c12 [Compound 118]
1 to 10 | N#Cc1c(-c2ccc(O)cc2F)nc2[nH]nc(N)c2c1-c1ccc(N2CCNCC2)c(F)c1 [Compound 193]
> 10 | Cc1n[nH]c2nc(-c3ccc(N)cc3F)c(C#N)c(-c3ccc(N4CCNCC4)cc3)c12 [Compound 160]
1 to 10 | Cc1n[nH]c2nc(-c3cc(Cl)ccc3F)c(C#N)c(-c3ccc(N4CCNCC4)cc3)c12 [Compound 217]
1 to 10 | N#Cc1c(-c2ccc(O)cc2F)nc2[nH]nc(N)c2c1-c1ccc(N2CCC(N)CC2)o1 [Compound 190]
1 to 10 | Cc1n[nH]c2nc(-c3ccc(O)cc3F)c(S(C)(=O)=O)c(-c3ccc(N4CCNCC4)cc3)c12 [Compound 238]
0.1 to 1 | N#Cc1c(-c2ccc(O)cc2F)nc2[nH]ncc2c1-c1ccc(N2CCNCC2)o1 [Compound 113]
1 to 10 | Cc1n[nH]c2nc(-c3cc4cc[nH]c4cc3F)c(C#N)c(-c3ccc(N4CCNCC4)cc3)c12 [Compound 234]

— US8889711B2, “Pyrazolopyridine derivatives as anticancer agent” (Pierre Fabre Medicament, priority 2009, dated 2014)
